In US10071081B2, “Compositions of 1,2,4-oxadiazole benzoic acid compounds and methods for their use” (PTC Therapeutics, Inc., priority 2003, dated 2018) one finds Activity data, which are given here for 32 compounds.

Molecules are shown by their SMILES. Structures can show the parent of a compound that is named as a salt.

The test system of this assay is luciferase reporter construct containing a UGA premature termination codon. The assay can be described thus: cell-based luciferase reporter assay. The conditions noted are these: ranking combining potency and efficacy of protein synthesis; UGA luciferase reporter stably transfected in 293T Human Embryonic Kidney cells. The arrangement: species or system Human; key to Activity: *****: both extremely high potency and extremely high efficacy of protein synthesis; ****: extremely high potency of protein synthesis and very high efficacy; ****: very high potency of protein synthesis and extremely high efficacy; ***: both very high potency and very high efficacy of protein synthesis; **: very high potency of protein synthesis and significant efficacy; **: significant potency of protein synthesis and very high efficacy; *: significant potency and efficacy of protein synthesis. Here is the method: Activity measurements in Table I were performed in a cell-based luciferase reporter assay (as described in Section 4.2) comprising a luciferase reporter construct containing a UGA premature termination codon that was stably transfected in 293T Human Embryonic Kidney cells. A small molecule, 3-[3-(4-Isopropyl-phenyl)-2,5-dioxo-imidazolidin-1-yl]-benzoic acid, known to allow readthrough of premature termination codons was used was used as an internal standard. Activity measurements are based on the qualitative relation between the minimum concentration of compound required to produce a given protein in a cell (potency) and the maximum amount of protein produced by the cell (efficacy). Potency and efficacy activities are ranked as either extremely high, very high or significant. The combination of these activities is used to determine the activity ranking.
Two assays were developed for use in high throughput screens to identify small molecules that promote nonsense suppression. Each assay utilized luciferase because it is a functional reporter gene assay (light is only produced if the protein is functional) and it is extremely sensitive (Light intensity is proportional to luciferase concentration in the nM range). The first assay is a cell-based luciferase reporter assay and the second is a biochemical assay consisting of rabbit reticulocyte lysate and a nonsense-containing luciferase reporter mRNA. In the cell-based assay, a luciferase reporter construct containing a UGA premature termination codon was stably transfected in 293T Human Embryonic Kidney cells. In the biochemical assay, mRNA containing a UGA premature termination codon was used as a reporter in an in vitro translation reaction using rabbit reticulocyte lysate supplemented with tRNA, hemin, creatine kinase, amino acids, KOAc, Mg(OAc)2, and creatine phosphate. […] Synthetic mRNA was prepared in vitro using the T7 promoter and the MegaScript in vitro transcription kit (Ambion).
To determine whether compounds also function in vivo, a stable cell line harboring the UGA nonsense-containing luciferase gene was treated with selected compounds. Cells were grown in standard medium supplemented with 1% penicillin-streptomycin (P/S) and 10% fetal bovine serum (FBS) to 70% confluency and split 1:1 the day before treatment. On the following day, cells were trypsinized and 40,000 cells were added to each well of a 96-well tissue culture dish. Serial dilutions of each compound were prepared to generate a six-point dose response curve spanning 2 logs (30 μM to 0.3 μM). The final concentration of the DMSO solvent remained constant at 1% in each well. Cells treated with 1% DMSO served as the background standard, and cells treated with gentamicin served as a positive control.
As to `O=C(O)c1cccc(-c2noc(Cc3ccc(Cl)cc3)n2)c1` [Compound 33, 3-[5-(4-Chloro-benzyl)-[1,2,4]oxadiazol-3-yl]-benzoic acid], the Activity result was “****”. Consider `CN(C)c1cccc(-c2nc(-c3cccc(C(=O)O)c3)no2)c1` [Compound 66, 3-[5-(3-Dimethylamino-phenyl)-[1,2,4]oxadiazol-3-yl]-benzoic acid], for which the Activity entry was “****”. Consider `N#Cc1ccc(-c2nc(-c3cccc(C(=O)O)c3)no2)cc1` [Compound 77, 3-[5-(4-Cyano-phenyl)-[1,2,4]oxadiazol-3-yl]-benzoic acid], for which the Activity entry is “*****”. On to `O=C(O)c1cccc(-c2noc(-c3ccc4c(c3)OC(F)(F)O4)n2)c1` [Compound 70, 3-[5-(2,2-Difluoro-benzo[1,3]dioxol-5-yl)-[1,2,4]oxadiazol-3-yl]-benzoic acid], for which the Activity entry was “***”. On to `O=C(O)c1cccc(-c2noc(-c3cccnc3Cl)n2)c1` [Compound 63, 3-[5-(2-Chloro-pyridin-3-yl)-[1,2,4]oxadiazol-3-yl]-benzoic acid], for which the Activity entry is given as “****”.

With `COc1ccccc1-c1nc(-c2cccc(C(=O)O)c2)no1` [Compound 19, 3-[5-(2-Methoxy-phenyl)-[1,2,4]oxadiazol-3-yl]-benzoic acid], the Activity entry is listed as “***”.

On to `O=C(O)c1cccc(-c2noc(C3CCCCC3)n2)c1` [Compound 09, 3-(5-Cyclohexyl-[1,2,4]oxadiazol-3-yl)-benzoic acid], for which the Activity result is listed as “****”. As for `O=C(O)c1cccc(-c2noc(-c3cc(F)ccc3F)n2)c1` [Compound 44, 3-[5-(2,5-Difluoro-phenyl)-[1,2,4]oxadiazol-3-yl]-benzoic acid], the Activity entry is “****”.

As to `O=C(O)c1cccc(-c2noc(Cc3ccc(F)cc3)n2)c1` [Compound 48, 3-[5-(4-Fluoro-benzyl)-[1,2,4]oxadiazol-3-yl]-benzoic acid], the Activity result is given as “****”. In the case of `O=C(O)c1cccc(-c2noc(-c3cccc(Cl)c3)n2)c1` [Compound 01, 3-[5-(3-Chloro-phenyl)-[1,2,4]oxadiazol-3-yl]-benzoic acid] it was “*****”. `O=C(O)c1cccc(-c2noc(-c3cccc4ccccc34)n2)c1` [Compound 03, 3-(5-Naphthalen-1-yl-[1,2,4]oxadiazol-3-yl)-benzoic acid]: the Activity entry is “****”. For the compound `COCCOCCOCCOCCOC(=O)c1cccc(-c2noc(-c3ccccc3F)n2)c1` [Compound 90, 3-[5-(2-Fluoro-phenyl)-[1,2,4]oxadiazol-3-yl]-benzoic acid 2-{2-[2-(2-methoxy-ethoxy)-ethoxy]-ethoxy}-ethyl ester], the Activity result is “**”.

Regarding `CCC(c1ccccc1)c1nc(-c2cccc(C(=O)O)c2)no1` (centres unmarked) [Compound 45, 3-[5-(1-Phenyl-propyl)-[1,2,4]oxadiazol-3-yl]-benzoic acid], the Activity entry was “*”. For `O=C(OCCOCCOCCOCCOCCOCCO)c1cccc(-c2noc(-c3ccccc3F)n2)c1` [Compound 92, 3-[5-(2-Fluoro-phenyl)-[1,2,4]oxadiazol-3-yl]-benzoic acid 2-[2-(2-{2-[2-(2-hydroxy-ethoxy)-ethoxy]-ethoxy}-ethoxy)-ethoxy]-ethyl ester], the Activity result was “***”. Consider `COC(=O)c1cccc(-c2noc(-c3ccccc3F)n2)c1` [Compound 86, 3-[5-(2-Fluoro-phenyl)-[1,2,4]oxadiazol-3-yl]-benzoic acid methyl ester], for which the Activity entry is on record as “**”. With `Cc1ccc(-c2nc(-c3cccc(C(=O)O)c3)no2)cc1` [Compound 04, 3-(5-p-Tolyl-[1,2,4]oxadiazol-3-yl)-benzoic acid], the Activity result is on record as “*****”. As to `COc1ccc(Cc2nc(-c3cccc(C(=O)O)c3)no2)cc1` [Compound 61, 3-[5-(4-Methoxy-benzyl)-[1,2,4]oxadiazol-3-yl]-benzoic acid], the Activity entry is “**”. Turning to `O=C(O)c1cccc(-c2noc(-c3ccc(F)cc3)n2)c1` [Compound 05, 3-[5-(4-Fluoro-phenyl)-[1,2,4]oxadiazol-3-yl]-benzoic acid], the Activity result was “*****”. Turning to `Nc1ccc(-c2nc(-c3cccc(C(=O)O)c3)no2)cc1` [Compound 93, 3-[5-(4-Amino-phenyl)-[1,2,4]oxadiazol-3-yl]-benzoic acid], the Activity entry is given as “****”. Next, `Cc1ccsc1-c1nc(-c2cccc(C(=O)O)c2)no1` [Compound 50, 3-[5-(3-Methyl-thiophen-2-yl)-[1,2,4]oxadiazol-3-yl]-benzoic acid]: “*****”; `O=C(O)c1cccc(-c2noc(-c3ccc(-c4ccccc4)cc3F)n2)c1` [Compound 75, 3-[5-(3-Fluoro-biphenyl-4-yl)-[1,2,4]oxadiazol-3-yl]-benzoic acid]: “****”. For the compound `O=C(O)c1cccc(-c2noc(COc3ccc(Cl)cc3)n2)c1` [Compound 34, 3-[5-(4-Chloro-phenoxymethyl)-[1,2,4]oxadiazol-3-yl]-benzoic acid], the Activity result was “****”.

With `CSc1ncccc1-c1nc(-c2cccc(C(=O)O)c2)no1` [Compound 69, 3-[5-(2-Methylsulfanyl-pyridin-3-yl)-[1,2,4]oxadiazol-3-yl]-benzoic acid], the Activity result was “****”. As for `CC(C)(C)c1ccc(-c2nc(-c3cccc(C(=O)O)c3)no2)cc1` [Compound 25, 3-[5-(4-tert-Butyl-phenyl)-[1,2,4]oxadiazol-3-yl]-benzoic acid], the Activity result was “*****”. For the compound `O=C(O)c1cccc(-c2noc(-c3ccc4c(c3)OCO4)n2)c1` [Compound 14, 3-(5-Benzo[1,3]dioxol-5-yl-[1,2,4]oxadiazol-3-yl)-benzoic acid], the Activity result is “*****”.

Take `COCc1nc(-c2cccc(C(=O)O)c2)no1` [Compound 43, 3-(5-Methoxymethyl-[1,2,4]oxadiazol-3-yl)-benzoic acid]: the Activity entry is “*”. As to `O=C(O)c1cccc(-c2noc(-c3ccc([N+](=O)[O-])cc3)n2)c1` [Compound 11, 3-[5-(4-Nitro-phenyl)-[1,2,4]oxadiazol-3-yl]-benzoic acid], the Activity result is recorded as “****”. On to `O=C(O)c1cccc(-c2noc(-c3cccc(OC(F)(F)F)c3)n2)c1` [Compound 47, 3-[5-(3-Trifluoromethoxy-phenyl)-[1,2,4]oxadiazol-3-yl]-benzoic acid], for which the Activity result was “****”. In the case of `COc1ccc(-c2noc(-c3ccc(F)cc3)n2)cc1C(=O)O` [Compound 76, 5-[5-(4-Fluoro-phenyl)-[1,2,4]oxadiazol-3-yl]-2-methoxy-benzoic acid], the Activity entry is “*”. In the case of `O=C(O)c1cccc(-c2noc(-c3ccc(-c4ccccc4)cc3F)n2)c1` [Compound 81, 3-[5-(3-Fluoro-biphenyl-4-yl)-[1,2,4]oxadiazol-3-yl]-benzoic acid] it was “**”; in that of `CCCCc1nc(-c2cccc(C(=O)O)c2)no1` [Compound 26, 3-(5-Butyl-[1,2,4]oxadiazol-3-yl)-benzoic acid], “****”; in that of `O=C([O][Na+])c1cccc(-c2noc(-c3ccccc3F)n2)c1` [Compound 78, 3-[5-(2-Fluoro-phenyl)-[1,2,4]oxadiazol-3-yl]-benzoic acid sodium salt], “*****”.
